PubChem BioAssay (NCI)
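Where inhibition never reached the appropriate level, the endpoint shown equals the highest concentration tested. Otherwise, values were interpolated linearly from a five-concentration, 48-hour dose response in 96-well plates. TGI: total growth inhibition.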

Legend:
Assay in all cases: NCI anticancer screen, dose series, 48 h
786-0 renal = system: 786-0 renal
A498 renal = system: A498 renal
A549 NSCLC = system: A549 NSCLC
ACHN renal = system: ACHN renal
BT-549 breast = system: BT-549 breast
CAKI-1 renal = system: CAKI-1 renal
CCRF-CEM leukemia = system: CCRF-CEM leukemia
COLO 205 colon = system: COLO 205 colon
DU-145 prostate = system: DU-145 prostate
EKVX NSCLC = system: EKVX NSCLC
HCC-2998 colon = system: HCC-2998 colon
HCT-116 colon = system: HCT-116 colon
HCT-15 colon = system: HCT-15 colon
HL-60(TB) leukemia = system: HL-60(TB) leukemia
HOP-62 NSCLC = system: HOP-62 NSCLC
HOP-92 NSCLC = system: HOP-92 NSCLC
HS 578T breast = system: HS 578T breast
HT29 colon = system: HT29 colon
IGROV1 ovarian = system: IGROV1 ovarian
K-562 leukemia = system: K-562 leukemia
KM12 colon = system: KM12 colon
LOX IMVI melanoma = system: LOX IMVI melanoma
M14 melanoma = system: M14 melanoma
MALME-3M melanoma = system: MALME-3M melanoma
MCF7 breast = system: MCF7 breast
MDA-MB-231 breast = system: MDA-MB-231 breast
MDA-MB-435 = system: MDA-MB-435
MDA-N = system: MDA-N
MOLT-4 leukemia = system: MOLT-4 leukemia
NCI-H226 lung = system: NCI-H226 lung
NCI-H23 lung = system: NCI-H23 lung
NCI-H460 lung = system: NCI-H460 lung
NCI-H522 lung = system: NCI-H522 lung
NCI/ADR-RES ovarian = system: NCI/ADR-RES ovarian
OVCAR-3 ovarian = system: OVCAR-3 ovarian
OVCAR-4 ovarian = system: OVCAR-4 ovarian
OVCAR-5 ovarian = system: OVCAR-5 ovarian
OVCAR-8 ovarian = system: OVCAR-8 ovarian
PC-3 prostate = system: PC-3 prostate
RPMI-8226 leukemia = system: RPMI-8226 leukemia
RXF 393 renal = system: RXF 393 renal
SF-268 CNS = system: SF-268 CNS
SF-295 CNS = system: SF-295 CNS
SK-MEL-2 melanoma = system: SK-MEL-2 melanoma
SK-MEL-28 melanoma = system: SK-MEL-28 melanoma
SK-MEL-5 melanoma = system: SK-MEL-5 melanoma
SK-OV-3 ovarian = system: SK-OV-3 ovarian
SNB-19 CNS = system: SNB-19 CNS
SNB-75 CNS = system: SNB-75 CNS
SR leukemia = system: SR leukemia
SW-620 colon = system: SW-620 colon
TK-10 renal = system: TK-10 renal
U251 CNS = system: U251 CNS
UACC-257 melanoma = system: UACC-257 melanoma
UACC-62 melanoma = system: UACC-62 melanoma
UO-31 renal = system: UO-31 renal
SF-539 CNS = system: SF-539 CNS
T-47D breast = system: T-47D breast

C[C@]12CC[C@@H]3c4ccc(OC(=O)c5ccccc5)cc4CC[C@H]3[C@@H]1CC[C@@H]2Oc1c2ccccc2nc2ccccc12
TGI (786-0 renal): 14.3 µM | TGI (A498 renal): > 50 µM | TGI (A549 NSCLC): 13.2 µM | TGI (ACHN renal): > 50 µM | TGI (BT-549 breast): 25.1 µM | TGI (CAKI-1 renal): 21.6 µM | TGI (CCRF-CEM leukemia): 21.2 µM | TGI (COLO 205 colon): > 50 µM | TGI (DU-145 prostate): 20.3 µM | TGI (EKVX NSCLC): 8.96 µM | TGI (HCC-2998 colon): 16.9 µM | TGI (HCT-116 colon): 18 µM | TGI (HCT-15 colon): 31.5 µM | TGI (HL-60(TB) leukemia): 40.4 µM | TGI (HOP-62 NSCLC): 15.7 µM | TGI (HOP-92 NSCLC): 36.9 µM | TGI (HS 578T breast): > 50 µM | TGI (HT29 colon): 12.6 µM | TGI (IGROV1 ovarian): 42.4 µM | TGI (K-562 leukemia): 17.8 µM | TGI (KM12 colon): 44 µM | TGI (LOX IMVI melanoma): 15.6 µM | TGI (M14 melanoma): 15.9 µM | TGI (MALME-3M melanoma): 21.6 µM | TGI (MCF7 breast): 46.3 µM | TGI (MDA-MB-231 breast): 35.2 µM | TGI (MDA-MB-435): 12.9 µM | TGI (MDA-N): 11.6 µM | TGI (MOLT-4 leukemia): 26.7 µM | TGI (NCI-H226 lung): 48 µM | TGI (NCI-H23 lung): > 50 µM | TGI (NCI-H460 lung): 17.1 µM | TGI (NCI-H522 lung): 46 µM | TGI (NCI/ADR-RES ovarian): > 50 µM | TGI (OVCAR-3 ovarian): 14.8 µM | TGI (OVCAR-4 ovarian): > 50 µM | TGI (OVCAR-5 ovarian): > 50 µM | TGI (OVCAR-8 ovarian): 45 µM | TGI (PC-3 prostate): 17.7 µM | TGI (RPMI-8226 leukemia): 18.1 µM | TGI (RXF 393 renal): 15.8 µM | TGI (SF-268 CNS): 20.8 µM | TGI (SF-295 CNS): > 50 µM | TGI (SK-MEL-2 melanoma): > 50 µM | TGI (SK-MEL-28 melanoma): 22.3 µM | TGI (SK-MEL-5 melanoma): 18.5 µM | TGI (SK-OV-3 ovarian): > 50 µM | TGI (SNB-19 CNS): 15.5 µM | TGI (SNB-75 CNS): 18.2 µM | TGI (SR leukemia): > 50 µM | TGI (SW-620 colon): > 50 µM | TGI (TK-10 renal): > 50 µM | TGI (U251 CNS): 15.4 µM | TGI (UACC-257 melanoma): 38.6 µM | TGI (UACC-62 melanoma): > 50 µM | TGI (UO-31 renal): > 50 µM

COc1cc(/C=N/Nc2nnc3c4ccccc4c4ncccc4c3n2)cc(OC)c1OC
TGI (786-0 renal): > 10 µM | TGI (A549 NSCLC): > 10 µM | TGI (ACHN renal): > 10 µM | TGI (BT-549 breast): > 10 µM | TGI (CCRF-CEM leukemia): > 10 µM | TGI (DU-145 prostate): > 10 µM | TGI (EKVX NSCLC): > 10 µM | TGI (HL-60(TB) leukemia): > 10 µM | TGI (HS 578T breast): > 10 µM | TGI (HT29 colon): 5.4 µM | TGI (IGROV1 ovarian): > 10 µM | TGI (K-562 leukemia): > 10 µM | TGI (KM12 colon): > 10 µM | TGI (M14 melanoma): > 10 µM | TGI (MDA-MB-435): > 10 µM | TGI (MDA-N): 8.09 µM | TGI (MOLT-4 leukemia): > 10 µM | TGI (NCI-H226 lung): 9.12 µM | TGI (NCI-H23 lung): 8.25 µM | TGI (NCI-H460 lung): 5.68 µM | TGI (NCI-H522 lung): 5.75 µM | TGI (OVCAR-3 ovarian): > 10 µM | TGI (OVCAR-4 ovarian): > 10 µM | TGI (OVCAR-5 ovarian): > 10 µM | TGI (OVCAR-8 ovarian): 6.58 µM | TGI (RXF 393 renal): > 10 µM | TGI (SF-268 CNS): > 10 µM | TGI (SF-295 CNS): > 10 µM | TGI (SF-539 CNS): > 10 µM | TGI (SK-MEL-5 melanoma): > 10 µM | TGI (SNB-19 CNS): > 10 µM | TGI (SNB-75 CNS): > 10 µM | TGI (SR leukemia): > 10 µM | TGI (T-47D breast): 4.11 µM | TGI (TK-10 renal): > 10 µM | TGI (U251 CNS): > 10 µM | TGI (UACC-257 melanoma): 8.23 µM | TGI (UO-31 renal): > 10 µM
